Reference: patent publication US10258602B2 (Ocera Therapeutics, Inc., priority 2007, dated 2019)
pEC50, pKi: −log10 of the molar value.

Key:
[1] = biological target: human growth hormone secretagogue receptor (hGHS-R1a) (Homo sapiens, UniProt Q92847); assay: Competitive radioligand binding assay (ghrelin receptor), standard method A
[2] = Pharmacokinetic analysis (oral bioavailability, elimination half-life) in the rat; type: in vivo
Source text: D. Pharmacokinetic Analysis of Representative Compounds of the Invention
The pharmacokinetic behavior of compound of the invention can be ascertained by methods well known to those skilled in the art. (Wilkinson, G. R. “Pharmacokinetics: The Dynamics of Drug Absorption, Distribution, and Elimination” in Goodman & Gilman's The Pharmacological Basis of Therapeutics, Tenth Edition, Hardman, J. G.; Limbird, L. E., Eds., McGraw Hill, Columbus, Ohio, 2001, Chapter 1.) The following method was used to investigate the pharmacokinetic parameters (elimination half-life, total plasma clearance, etc.) for intravenous, subcutaneous and oral administration of compounds of the present invention. See also U.S. patent application Ser. No. 11/149,512 and Ser. No. 11/149,731 and Intl. Pat. Appl. No. PCT/US2007/017905.
The table below presents oral bioavailability and elimination half-life data in the rat for representative compounds of the present invention. The parameters were determined by HPLC-MS after oral administration of an 8 mg/kg dose of the compound, except for compound 822 where a 2 mg/kg dose was used.

fasted rats = assay: Gastric emptying in fasted rat model, standard method E; type: in vivo; settings: average where repeated
Protocol: E. Gastric Emptying in Fasted Rat Model
To examine the effects of compounds of the invention in a model for gastroparesis, compounds were evaluated for possible effects on gastric emptying in fasted rats. This model is used to determine the potential of compounds of the invention to promote motility in fasted rats.
• 1. Overnight-fasted rats (male, Wistar, 200 g, n=5/group) were given a meal (2 mL) of methylcellulose (2%) by intragastric gavage. The meal was labeled with phenol red (0.05%). • 2. Test articles (dosed at various concentrations, typically 1, 3, 10, 30 mg/kg), vehicle and positive control (metoclopramide, a 5-HT ligand and prokinetic agent currently prescribed for the treatment of GI disorders, including gastroparesis) were administered by oral gavage immediately after the meal (time=0). • 3. […] Total phenol red remaining in the stomach was quantified by a colorimetric method at 560 nm. • 5. A 30% or more increase in gastric emptying (as compared to the vehicle control) was considered significant. • 6. One-way ANOVA, Dunnet's post-hoc statistical test was applied Results
The effects of representative compounds of the invention in the rat gastric emptying model described in standard method E are provided in the following table. In cases where an experiment was conducted multiple times, the average of the individual results is presented.

[3] = Plasma protein binding, human plasma (equilibrium dialysis); type: in vitro ADME; settings: test concentration 3 μg/mL
Source text: J. Plasma Protein Binding
The pharmacokinetic and pharmacodynamic properties of drugs are largely a function of the reversible binding of drugs to plasma or serum proteins such as albumin and α1-acid glycoprotein. In general, only unbound drug is available for diffusion or transport across cell membranes, and for interaction at the pharmacological target. On the other hand, drugs with low plasma protein binding generally have large volumes of distribution and rapid clearance since only unbound drug is available for glomerular filtration and, in some cases, hepatic clearance. Thus, the extent of plasma protein binding can influence efficacy, distribution and elimination. The ideal range for plasma protein binding is in the range of 87-98% for most drug products.
Protein binding studies were performed using human plasma. Briefly, 96-well microplates were used to incubate various concentrations of the test article for 60 min at 37° C. Bound and unbound fractions are separated by equilibrium dialysis, where the concentration remaining in the unbound fraction is quantified by LC-MS or LC-MS-MS analysis. […].
The table below presents protein binding data for representative compounds of the present invention in both human and rat plasma.

hGHS-R1a = biological target: T1, hGHS-R1a (Homo sapiens, UniProt Q92847); assay: Activation-desensitization profile, Ca2+ flux in HEK293 cells stably expressing hGHS-R1a; type: cell-based; settings: higher positive = less desensitization potential
T1 construct: expressed in transfected cells
T1 sequence (Q92847 whole entry): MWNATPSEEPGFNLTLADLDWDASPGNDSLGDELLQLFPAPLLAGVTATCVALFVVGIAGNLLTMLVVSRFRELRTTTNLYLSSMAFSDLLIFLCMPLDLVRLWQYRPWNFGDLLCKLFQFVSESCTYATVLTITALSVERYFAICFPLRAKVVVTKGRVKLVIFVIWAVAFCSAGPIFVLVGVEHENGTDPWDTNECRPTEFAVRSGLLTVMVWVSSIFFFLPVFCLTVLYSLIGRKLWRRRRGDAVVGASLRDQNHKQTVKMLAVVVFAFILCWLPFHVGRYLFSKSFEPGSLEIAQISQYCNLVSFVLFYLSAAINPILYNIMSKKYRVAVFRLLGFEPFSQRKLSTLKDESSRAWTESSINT
Protocol: M. Activation-Desensitization Profile
It is well-known that agonists of G-protein coupled receptors can induce desensitization or tachyphylaxis, thereby limiting the potential of agents acting at the receptor as therapeutics for chronic use.
• 1. […] Agonist-induced Ca^+2 fluxes were measured after loading with Ca^+2 indicator Fluo-4-AM. • 3. […] Results

in vitro = settings: human, Caco-2
Protocol: L. Determination of Caco-2 Permeability
Fully differentiated cell monolayers can be used to assess the membrane transport properties of novel compounds.
Permeability across the Caco-2 cell layer was determined by growing the cells on a membrane placed between two (donor and acceptor) chambers. […] Permeability in this direction represents intestinal absorption. Permeability may also be determined from the basolateral to the apical side of the Caco-2 cell. A higher apical to basolateral Papp, compared to the basolateral to apical Papp, is indicative of carrier-mediated transport.
Permeability (10 μM) for compounds of the invention in the apical to basolateral and basolateral to apical direction were tested in duplicate. Samples will be collected from the donor and acceptor chambers at the beginning (0 min) and following 60 min of incubation at 37° C. and stored frozen at −70° C. until bioanalysis. Samples for each test compound generated from the Caco-2 permeability assay were further analyzed by LC-MS-MS. The permeability of [^3H]-mannitol and [^3H]-propranolol were determined in parallel as controls.
The permeability coefficient (Papp) of each compound and radiolabeled standard was determined using the following equation:
where dQ/dT represents the permeability rate, Ci denotes the initial concentration in the donor compartment, and A represents the surface area of the filter. Ci is determined from the mean concentration of duplicate samples taken prior to addition to the donor compartment. Permeability rates were calculated by plotting the cumulative amount of compound measured in the acceptor compartment over time and determining the slope of the line by linear regression analysis. The duplicate and mean apical to basolateral and basolateral to apical Papp's were reported for each compound and standard.

[4] = system: rat stomach fundus strips; assay: tissue or blood; settings: read-out: EC50 values for contractility
Protocol: Fundus strips (approximately 0.4×1 cm) were cut from the stomach of adult male Wistar rats parallel to the circular muscle fibers. They were placed between two platinum ring electrodes, 1 cm apart (Radnoti, ADInstruments, USA) in 10 ml tissue baths containing Krebs solution bubbled with 5% CO2 in O2 and maintained at 37° C. Tissues were suspended under 1.5 g resting tension. Changes of tension were measured isometrically with force transducers and recorded with a PowerLab 8/30 data acquisition system (ADInstruments, USA). Tissues were allowed to equilibrate for 60 min during which time bath solutions were changed every 15 min.
EFS was achieved by applying 0.5 ms pulses, 5 Hz frequency, at a maximally effective voltage of 70 V. EFS was applied for 30 sec at 3 min intervals for a 30 min initial period. This initial period was separated by a 5 min interval with wash out of the bath solution. Then, a second period of stimulation was started. […] Responses to the agents were measured and expressed as % of the mean of three or four pre-drug responses to EFS. All compounds were dissolved at 1 mM in distilled water or MeOH, as stock solutions.

human plasma = settings: reference controls; cited from earlier work

Chain of human growth hormone secretagogue receptor (hGHS-R1a) (Q92847 whole entry): as above

Row | pKi [1] | Oral Bioavailability (rat, % F) ([2]; oral administration, 8 mg/kg dose, HPLC-MS) | bioavailability ([2]; plasma, 8 mg/kg, oral administration (Example 3)) | half-life ([2]; plasma, oral administration, 8 mg/kg dose, HPLC-MS, read-out: Elimination Half-life (t1/2, rat, min)) | fraction unbound at 60 min, 3 μg/mL [3] | Papp A→B at 60 min, 10 μM (in vitro) | Papp B→A at 60 min, 10 μM (in vitro) | efflux ratio at 60 min, 10 μM (in vitro) | pEC50 [4] | Compound | Percent Increase in Gastric Emptying After Oral Administration (fasted rats; dose 3 mg/kg) | Percent Increase in Gastric Emptying After Oral Administration (fasted rats; dose 10 mg/kg) | Percent Increase in Gastric Emptying After Oral Administration (fasted rats; dose 30 mg/kg) | Δ(activity-desensitization) (pEC50 − pDC50) (hGHS-R1a) | known plasma protein binding values (human plasma)
1 | ≥ 9.00 | 4 % F | 4% | 42 min | 0.116 | 163 ×10⁻⁶ cm/s | 110 ×10⁻⁶ cm/s | 0.672 | 6.52 | CC(C)C[C@H]1NC(=O)[C@@H](C)N(C)C(=O)[C@H](C2CCCCC2)NC[C@H]2CCc3cccc(c3O2)CCCNC1=O [Compound 801] | 27% | 31% | 40% | 3.30 | –
2 | – | – | – | – | – | – | – | – | – | CC(=O)CC(c1ccccc1)c1c(O)c2ccccc2oc1=O (stereo not drawn) [warfarin] | – | – | – | – | ~98%
3 | – | – | – | – | – | – | – | – | – | GHRP-6 [reference compound] | – | – | – | 0.60 | –
